Where no end group is shown, it is not given here.
tested on: Candida albicans (ATCC 10231); type: cell-based; settings: ATCC 10231, 24 h
Description: (§1) The synthetic peptides were also screened for antifungal activity against Candida albicans (ATCC 10231), Aureobasidium pullulans and Rhodotorula sp. (the last two were obtained from Professor Arne Tronsmo, The Norwegian University of Life Sciences, As, Norway). The antifungal assay was performed as previously described (Sperstad, S. V., et al. (2009) Dev. Comp. Immunol. 33, 583-591). Briefly, fungal spores were dissolved in potato dextrose broth (Difco, Lawrence, Kans., USA) to a concentration of 4×10^5 spores/ml. The spores (50 μl) were inoculated on 96-well Nunclon™ microtiter plates containing the synthetic peptides (50 μl) dissolved in MQ-H2O. […] The negative (growth) control consisted of medium and fungal solution. The peptides were tested for activity in concentrations ranging from 100 to 0.1 μM in two-fold serial dilutions. All tests were performed in triplicates.

Row | Substance | MIC (μM) C. albicans [µM]
1 | GWWRRWVKKVRK-NH2 [HC(1-12)W6K8K12, GWWRRWVKKVRK-NH2] | 25
2 | GWARRWVAKVRK-NH2 [HC(1-12)A3W6A8K12, GWARRWVAKVRK-NH2] | 6.3
3 | RWWRRWVRRVRR-NH2 [HC(1-12)R1W6R8,9,12-NH2, RWWRRWVRRVRR-NH2] | 12.5
4 | GWWRRKVAKVRK-NH2 [HC(1-12)K6A8K12, GWWRRKVAKVRK-NH2] | 50
5 | KWWRRWVKKVRK-NH2 [HC(1-12)K1W6K8K12, KWWRRWVKKVRK-NH2] | 6.3

same assay, conditions: no visible growth after 24 h at room temperature

Row | Substance | MIC (μM) C. albicans [µM]
6 | GWWRRWVAKVRK-NH2 [HC(1-12)W6A8K12, GWWRRWVAKVRK-NH2] | 12.5

tested on: Rhodotorula sp.; type: cell-based; settings: 24 h
Description: as §1

Row | Substance | MIC (μM) Rhodotorula sp. [µM]
7 | GWWRRWVKKVRK-NH2 [HC(1-12)W6K8K12, GWWRRWVKKVRK-NH2] | 6.3
8 | GWARRWVAKVRK-NH2 [HC(1-12)A3W6A8K12, GWARRWVAKVRK-NH2] | 6.3
9 | RWWRRWVRRVRR-NH2 [HC(1-12)R1W6R8,9,12-NH2, RWWRRWVRRVRR-NH2] | 3.1
10 | GWWRRKVAKVRK-NH2 [HC(1-12)K6A8K12, GWWRRKVAKVRK-NH2] | 25
11 | KWWRRWVKKVRK-NH2 [HC(1-12)K1W6K8K12, KWWRRWVKKVRK-NH2] | 3.1

tested on: Aureobasidium pullulans; type: cell-based; settings: 24 h
Description: as §1

Row | Substance | MIC (μM) A. pullulans [µM]
12 | GWWRRWVAKVRK-NH2 [HC(1-12)W6A8K12, GWWRRWVAKVRK-NH2] | 50
13 | GWWRRWVKKVRK-NH2 [HC(1-12)W6K8K12, GWWRRWVKKVRK-NH2] | 12.5
14 | GWARRWVAKVRK-NH2 [HC(1-12)A3W6A8K12, GWARRWVAKVRK-NH2] | 25
15 | RWWRRWVRRVRR-NH2 [HC(1-12)R1W6R8,9,12-NH2, RWWRRWVRRVRR-NH2] | 25
16 | GWWRRKVAKVRK-NH2 [HC(1-12)K6A8K12, GWWRRKVAKVRK-NH2] | 25
17 | KWWRRWVKKVRK-NH2 [HC(1-12)K1W6K8K12, KWWRRWVKKVRK-NH2] | 25

tested on: Corynebacterium glutamicum (Cg, ATCC 13032); type: cell-based; settings: 24 h at 35° C., complete inhibition by OD 595 nm
Description: (§2) The peptides were screened for antibacterial activity against two strains of Gram-positive and two strains of Gram-negative bacteria; Corynebacterium glutamicum (Cg, ATCC 13032), Staphylococcus aureus (Sa, ATCC 9144), Pseudomonas aeruginosa (Pa, ATCC 27853) and Escherichia coli (Ec, ATCC 25922).
(§3) Cultures stored at −80° C. in glycerol were transferred to Müller-Hinton plates (MH, Difco, Lawrence, Kans., USA) and incubated for 24 h at 35° C. A few colonies of each bacterial strain were transferred to 5 ml liquid MH medium and left shaking at room temperature overnight at 600 rpm. Cultures of actively growing bacteria (20 μl) were inoculated in 5 ml MH medium and left shaking for 2 h at room temperature. The antibacterial assays were performed as previously described by Sperstad, S. V., et al. ((2009) Mol. Immunol. 46, 2604-2612) with the following exception: bacterial cultures were diluted with medium to 2.5-3×10^4 bacteria/ml concentrations. An aliquot of 50 μl (1250-1500 bacterial cells) was added to each well in 96-well Nunclon™ microtiter plates (Nagle Nunc Int., Denmark) preloaded with peptide solution (50 μl).
(§4) The microtiter plates were incubated for 24 h at 35° C. with optical density recorded every hour using an Envision 2103 multilabel reader, controlled by a Wallac Envision manager (PerkinElmer, Conn., USA). Minimum inhibitory concentration (MIC) was defined as a sample showing complete inhibition (as measured by optical density at 595 nm) compared to the negative (growth) controls, consisting of bacteria and water. Oxytetracycline (20 μM) served as a positive (inhibition) control.
(§5) The synthetic peptides were tested for antibacterial activity in concentrations ranging from 200 to 0.1 μM in two-fold dilutions. All tests were performed in triplicates.

Row | Substance | MIC (μM) Cg [µM]
18 | GWWRRWVAKVRK-NH2 [HC(1-12)W6A8K12, GWWRRWVAKVRK-NH2] | 0.8

same assay, conditions: ATCC 13032, 24 h

Row | Substance | MIC (μM) Cg [µM]
19 | H-GWWRRTVAKVRN-NH2 [HC(1-12)A8, GWWRRTVAKVRN] | 1.6
20 | GWWRRWVKKVRK-NH2 [HC(1-12)W6K8K12, GWWRRWVKKVRK-NH2] | 1.6
21 | H-GWWRRTVRK-NH2 [HC(1-9)R8, GWWRRTVRK] | 3.1
22 | WWRRTVAKVRNAGRK-NH2 [HC(2-16)A7, WWRRTVAKVRNAGRK] | 0.4
23 | GWARRWVAKVRK-NH2 [HC(1-12)A3W6A8K12, GWARRWVAKVRK-NH2] | 0.8
24 | RWWRRWVRRVRR-NH2 [HC(1-12)R1W6R8,9,12-NH2, RWWRRWVRRVRR-NH2] | 0.8
25 | GWWRRKVAKVRK-NH2 [HC(1-12)K6A8K12, GWWRRKVAKVRK-NH2] | 1.6
26 | KWWRRWVKKVRK-NH2 [HC(1-12)K1W6K8K12, KWWRRWVKKVRK-NH2] | 0.4

tested on: Staphylococcus aureus (Sa, ATCC 9144); type: cell-based; settings: 24 h at 35° C., complete inhibition by OD 595 nm
Description: as §2, §3, §4, §5

Row | Substance | MIC (μM) Sa [µM]
27 | GWWRRWVAKVRK-NH2 [HC(1-12)W6A8K12, GWWRRWVAKVRK-NH2] | 3.1

same assay, conditions: ATCC 9144, 24 h

Row | Substance | MIC (μM) Sa [µM]
28 | H-GWWRRTVAKVRN-NH2 [HC(1-12)A8, GWWRRTVAKVRN] | 50
29 | GWWRRWVKKVRK-NH2 [HC(1-12)W6K8K12, GWWRRWVKKVRK-NH2] | 3.1
30 | H-GWWRRTVRK-NH2 [HC(1-9)R8, GWWRRTVRK] | 100
31 | WWRRTVAKVRNAGRK-NH2 [HC(2-16)A7, WWRRTVAKVRNAGRK] | 12.5
32 | GWARRWVAKVRK-NH2 [HC(1-12)A3W6A8K12, GWARRWVAKVRK-NH2] | 50
33 | RWWRRWVRRVRR-NH2 [HC(1-12)R1W6R8,9,12-NH2, RWWRRWVRRVRR-NH2] | 3.1
34 | GWWRRKVAKVRK-NH2 [HC(1-12)K6A8K12, GWWRRKVAKVRK-NH2] | 12.5
35 | KWWRRWVKKVRK-NH2 [HC(1-12)K1W6K8K12, KWWRRWVKKVRK-NH2] | 6.3

tested on: Pseudomonas aeruginosa (Pa, ATCC 27853); type: cell-based; settings: 24 h at 35° C., complete inhibition by OD 595 nm
Description: as §2, §3, §4, §5

Row | Substance | MIC (μM) Pa [µM]
36 | GWWRRWVAKVRK-NH2 [HC(1-12)W6A8K12, GWWRRWVAKVRK-NH2] | 1.6

same assay, conditions: ATCC 27853, 24 h

Row | Substance | MIC (μM) Pa [µM]
37 | H-GWWRRTVAKVRN-NH2 [HC(1-12)A8, GWWRRTVAKVRN] | 6.3
38 | GWWRRWVKKVRK-NH2 [HC(1-12)W6K8K12, GWWRRWVKKVRK-NH2] | 3.1
39 | H-GWWRRTVRK-NH2 [HC(1-9)R8, GWWRRTVRK] | 25
40 | WWRRTVAKVRNAGRK-NH2 [HC(2-16)A7, WWRRTVAKVRNAGRK] | 25
41 | GWARRWVAKVRK-NH2 [HC(1-12)A3W6A8K12, GWARRWVAKVRK-NH2] | 12.5
42 | RWWRRWVRRVRR-NH2 [HC(1-12)R1W6R8,9,12-NH2, RWWRRWVRRVRR-NH2] | 3.1
43 | GWWRRKVAKVRK-NH2 [HC(1-12)K6A8K12, GWWRRKVAKVRK-NH2] | 50
44 | KWWRRWVKKVRK-NH2 [HC(1-12)K1W6K8K12, KWWRRWVKKVRK-NH2] | 1.6

tested on: Escherichia coli (Ec, ATCC 25922); type: cell-based; settings: 24 h at 35° C., complete inhibition by OD 595 nm
Description: as §2, §3, §4, §5

Row | Substance | MIC (μM) Ec [µM]
45 | GWWRRWVAKVRK-NH2 [HC(1-12)W6A8K12, GWWRRWVAKVRK-NH2] | 1.6

same assay, conditions: ATCC 25922, 24 h

Row | Substance | MIC (μM) Ec [µM]
46 | H-GWWRRTVAKVRN-NH2 [HC(1-12)A8, GWWRRTVAKVRN] | 6.3
47 | GWWRRWVKKVRK-NH2 [HC(1-12)W6K8K12, GWWRRWVKKVRK-NH2] | 6.3
48 | H-GWWRRTVRK-NH2 [HC(1-9)R8, GWWRRTVRK] | 50
49 | WWRRTVAKVRNAGRK-NH2 [HC(2-16)A7, WWRRTVAKVRNAGRK] | 6.3
50 | GWARRWVAKVRK-NH2 [HC(1-12)A3W6A8K12, GWARRWVAKVRK-NH2] | 6.3
51 | RWWRRWVRRVRR-NH2 [HC(1-12)R1W6R8,9,12-NH2, RWWRRWVRRVRR-NH2] | 3.1
52 | GWWRRKVAKVRK-NH2 [HC(1-12)K6A8K12, GWWRRKVAKVRK-NH2] | 12.5
53 | KWWRRWVKKVRK-NH2 [HC(1-12)K1W6K8K12, KWWRRWVKKVRK-NH2] | 3.1

Reference: US20200071357A1, “ANTIMICROBIAL PEPTIDES” (UNIVERSITETET I TROMSØ - NORGES ARKTISKE UNIVERSITET, priority 2016, published 2020)
